The text below walks through data of PubChem BioAssay (NCI).

Where “and” joins values, the source holds several entries; their conditions need not be identical. Equal entries are not always repeated.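 Grown in 96-well plates, cells were treated for 48 hours with each compound at five concentrations. Insufficient inhibition: endpoint recorded as highest concentration tested. GI50 = concentration required for 50% inhibition of growth. TGI: total growth inhibition.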

Among the test systems are A498 renal; DU-145 prostate; IGROV1 ovarian; LOX IMVI melanoma; MALME-3M melanoma; MDA-MB-435; NCI-H226 lung; NCI-H522 lung; RPMI-8226 leukemia; SNB-75 CNS.
Common to all, as to assay: inhibition of tumour cell growth, NCI panel, 48 h

With `N[C@@H]1C(=O)N2C(C(=O)OC(c3ccccc3)c3ccccc3)=C(CCl)CS[C@H]12`, the GI50 in the assay on A498 renal is more than 100 µM; in the assay with DU-145 prostate, 15 µM; in the assay on IGROV1 ovarian, 47.4 µM; in the assay with LOX IMVI melanoma it was 24.9 µM; in the assay on MALME-3M melanoma, more than 74.5 µM; in the assay on MDA-MB-435, 35.1 µM. In addition, the GI50 is 55.2 µM in the assay with NCI-H226 lung, 31 µM in the assay on NCI-H522 lung, 16.8 µM with RPMI-8226 leukemia and 47.7 µM with SNB-75 CNS. In addition, the TGI in the assay on A498 renal is more than 100 µM; with DU-145 prostate, more than 100 µM; with IGROV1 ovarian, more than 100 µM; with LOX IMVI melanoma, 65 µM; in the assay on MALME-3M melanoma, more than 100 µM; in the assay on MDA-MB-435 it was more than 100 µM. Further, the TGI is more than 100 µM in the assay on NCI-H226 lung, more than 84.7 µM in the assay with NCI-H522 lung, 50.8 µM with RPMI-8226 leukemia and more than 100 µM with SNB-75 CNS.

`N#Cc1c(Br)n(C2OC(CO)C(O)C2O)c2ncnc(N)c12` (stereo not given): the GI50 in the assay with A498 renal was 2.64 µM; in the assay on DU-145 prostate it was 0.844 µM; with IGROV1 ovarian, 0.333 µM; with LOX IMVI melanoma it was 1.13 µM; with MALME-3M melanoma, 2.53 µM; in the assay on MDA-MB-435, 1.24 µM. Also, the GI50 with NCI-H226 lung is 9.16 µM; in the assay on NCI-H522 lung, 4.62 µM; with RPMI-8226 leukemia, 1.26 µM; with SNB-75 CNS, 3.98 µM. Besides, the TGI is 20.9 µM in the assay with A498 renal; 23.9 µM in the assay with DU-145 prostate; 1.76 µM in the assay with IGROV1 ovarian; 16.4 µM with LOX IMVI melanoma; 20 µM in the assay on MALME-3M melanoma; more than 46.2 µM in the assay on MDA-MB-435. For the same compound, the TGI with NCI-H226 lung is more than 100 µM; in the assay with NCI-H522 lung it was 14.8 µM; in the assay on RPMI-8226 leukemia, 6.69 µM; in the assay on SNB-75 CNS, 30.7 µM.

In the case of `Brc1ccc2[nH]cc(-c3nc(-c4c[nH]c5ncccc45)cs3)c2c1`, the GI50 is 1.94 µM in the assay on A498 renal; 4.14 µM in the assay with DU-145 prostate; 3.17 µM in the assay with IGROV1 ovarian; 2.46 µM with LOX IMVI melanoma; 4.46 µM in the assay on MALME-3M melanoma; 4.04 µM with MDA-MB-435. For the same compound, the GI50 in the assay with NCI-H226 lung is 5.02 µM; with NCI-H522 lung, 3.53 µM; with RPMI-8226 leukemia, 4.82 µM; in the assay on SNB-75 CNS, 2.08 µM. The TGI was 10.9 µM with A498 renal; 15.7 µM with DU-145 prostate; 23 µM in the assay with IGROV1 ovarian; 11 µM in the assay on LOX IMVI melanoma; 18.8 µM in the assay on MALME-3M melanoma; 15.8 µM in the assay with MDA-MB-435. Also, the TGI in the assay on NCI-H226 lung came to 21.7 µM; in the assay on NCI-H522 lung it was 10.8 µM; in the assay on RPMI-8226 leukemia it was 63.9 µM; in the assay with SNB-75 CNS, 13.4 µM.

As to `COc1cc(NS(C)(=O)=O)ccc1Nc1c2ccccc2nc2ccccc12`, the GI50 in the assay on A498 renal was 1.61 µM and 0.237 µM and 0.405 µM; in the assay on IGROV1 ovarian, 1.59 µM and 1.44 µM and 0.826 µM; with LOX IMVI melanoma, 0.351 µM and 0.306 µM and 0.31 µM; with MALME-3M melanoma, 1.27 µM and 0.511 µM and 0.515 µM; in the assay with MDA-MB-435, 3.04 µM and 11 µM and 7.26 µM; with NCI-H226 lung it was 0.256 µM and 0.26 µM and 0.22 µM. In addition, the GI50 with NCI-H522 lung was 3.27 µM and 0.552 µM; in the assay with RPMI-8226 leukemia, 4.07 µM and 2 µM; with SNB-75 CNS, 0.221 µM and 0.335 µM and 0.341 µM. Also, the TGI in the assay with DU-145 prostate is 2.59 µM [middle of 5 runs].

In the case of `O=C(O)C1CCCCC1c1c2ccc(=O)c(O)c-2oc2c(O)c(O)ccc12` (stereo not given), the TGI in the assay on A498 renal was more than 100 µM; with DU-145 prostate, more than 100 µM; with IGROV1 ovarian, more than 100 µM; with LOX IMVI melanoma, 32.6 µM; in the assay on MALME-3M melanoma, more than 100 µM; in the assay on MDA-MB-435, 44.5 µM. In addition, the TGI with NCI-H226 lung was 71.5 µM; in the assay on NCI-H522 lung, 67 µM; in the assay on RPMI-8226 leukemia, 69.7 µM; in the assay on SNB-75 CNS, more than 100 µM.

With `O=[N+]([O-])c1ccc(Oc2nc(Nc3ccc(O[C@H]4CO[C@H]5[C@@H]4OC[C@@H]5O)c(Cl)c3)ncc2F)c(Cl)c1`, the GI50 with A498 renal was 0.669 µM; with DU-145 prostate, 0.917 µM; in the assay with IGROV1 ovarian it was 0.493 µM; in the assay with LOX IMVI melanoma, 0.667 µM; in the assay on MALME-3M melanoma, 1.07 µM; in the assay with MDA-MB-435, 1.2 µM. The GI50 in the assay on NCI-H226 lung was 0.73 µM; in the assay on NCI-H522 lung, 1.17 µM; in the assay on RPMI-8226 leukemia it was 0.61 µM; in the assay on SNB-75 CNS, 0.443 µM. Moreover, the TGI is 2.38 µM in the assay on A498 renal; 5.45 µM in the assay on DU-145 prostate; 2.77 µM in the assay on IGROV1 ovarian; 2.28 µM in the assay on LOX IMVI melanoma; 3.17 µM in the assay with MALME-3M melanoma; 3.5 µM in the assay with MDA-MB-435. The TGI in the assay with NCI-H226 lung was found to be 2.5 µM; with NCI-H522 lung, 5.6 µM; in the assay on RPMI-8226 leukemia, 2.56 µM; with SNB-75 CNS, 3.28 µM.

Regarding `Oc1ccc(-c2nc3ccc4[nH]ncc4c3c3c2CCCC3)c(F)c1`, the GI50 with A498 renal is 2.25 µM; in the assay on DU-145 prostate it was 2.89 µM; in the assay on IGROV1 ovarian it was 2.8 µM; with LOX IMVI melanoma, 2.9 µM; with MALME-3M melanoma, 3.36 µM; in the assay with MDA-MB-435, 1.75 µM. For the same compound, the GI50 is 5.26 µM in the assay on NCI-H226 lung, 1.25 µM in the assay on NCI-H522 lung, 1.8 µM in the assay with RPMI-8226 leukemia and 2.02 µM with SNB-75 CNS. Moreover, the TGI in the assay on A498 renal came out at 6.51 µM; in the assay on DU-145 prostate, 13.2 µM; with IGROV1 ovarian, 12.4 µM; with LOX IMVI melanoma, 12.4 µM; in the assay on MALME-3M melanoma it was 12.1 µM; in the assay on MDA-MB-435, 10.9 µM. The TGI in the assay with NCI-H226 lung came to 69.9 µM; with NCI-H522 lung, 4.72 µM; with RPMI-8226 leukemia, 10.7 µM; with SNB-75 CNS it was 7.05 µM.

Turning to `Cc1ccc(-c2c3c(nn2-c2ccc(S(N)(=O)=O)cc2)-c2ccccc2C3)cc1`, the GI50 in the assay with A498 renal was 6.07 µM; with DU-145 prostate, 15.6 µM; in the assay with IGROV1 ovarian it was 3.27 µM; in the assay with LOX IMVI melanoma, 18.2 µM; with MALME-3M melanoma, 11.6 µM; with MDA-MB-435, 18.2 µM. For the same compound, the GI50 was 16.5 µM in the assay with NCI-H226 lung, 11.5 µM with NCI-H522 lung, 18.4 µM in the assay on RPMI-8226 leukemia and 17.5 µM in the assay on SNB-75 CNS. Further, the TGI was determined as 21 µM in the assay with A498 renal; 33.1 µM with DU-145 prostate; 16 µM in the assay with IGROV1 ovarian; 40.5 µM in the assay on LOX IMVI melanoma; 26.5 µM in the assay on MALME-3M melanoma; 34.7 µM with MDA-MB-435. The TGI worked out at 44 µM with NCI-H226 lung, 27.6 µM in the assay on NCI-H522 lung, 60.2 µM with RPMI-8226 leukemia and 33.8 µM with SNB-75 CNS.
